Results published in patent US6992105B2, “Dipeptide derivatives” (Novartis AG, priority 2001, dated 2006).
Ends that are not written are not given here.

How the values were obtained:
[1] = molecular target: angiotensin converting enzyme (ACE) (Homo sapiens, UniProt P12821); assay: in vitro inhibition of ACE (hippuryl-histidyl-leucine substrate); assay type: biochemical; settings: ACE in vitro assay
Experimental: In vitro testing is most appropriate for the free carboxylic acids of the invention. The test compound is dissolved in dimethyl sulfoxide, ethanol or 0.25 M sodium bicarbonate solution, and the solution is diluted with buffer to the desired concentration.
The buffer for the ACE assay is 300 mM NaCl, 100 mM KH2PO4 (pH 8.3). The reaction is initiated by the addition of 100 μL of hippuryl-histidyl-leucine (2 mg/mL) to tubes containing enzyme and drug in a volume of 150 μL and tubes are incubated for 30 minutes at 37° C. The reaction is terminated by the addition of 0.75 mL 0.6 N NaOH. 100 μL of freshly prepared O-pthaldehyde solution (2 mg/mL in methanol) is added to the tubes, the contents are mixed and allowed to stand at room temperature. After 10 minutes, 100 μL of 6 N HCl is added. The tubes are centrifuged and the supernatant optical density is read at 360 nm. The results are plotted against drug concentration to determine the IC50, i.e., the drug concentration which gives half the activity of the control sample containing no drug.

[2] = tested on: angiotensin I induced pressor response (ACE); assay: inhibition of the angiotensin I induced pressor response in normotensive rats; assay type: in vivo, rat; settings: 10 mg/kg i.v., conscious normotensive rats
Experimental: The in vivo test for i.v. administered compounds is performed with male, normotensive rats, which are conscious. A femoral artery and femoral vein are cannulated respectively for direct blood pressure measurement on i.v. administration of angiotensin I and i.v. or p.o. administration of a compound of this invention. After the basal blood pressure is stabilized, pressor responses to 3 or 4 challenges of 300 ng/kg angiotensin I i.v., at 15-minute intervals, are obtained. Such pressure responses are usually again obtained at 15, 30, 60 and 90 minutes, and then every hour up to 6 hours after i.v. or p.o. administration of the compound to be tested, and compared with the initial responses. Any observed decrease of said pressor response is an indication of ACE inhibition.

NEP (EC 3.4.24.11) = molecular target: T1, NEP (EC 3.4.24.11) (Rattus norvegicus, UniProt P07861); assay: in vitro inhibition of NEP (GAAP substrate, rat kidney cortex membranes); assay type: biochemical; settings: substrate glutaryl-Ala-Ala-Phe-2-naphthylamide (GAAP)
T1 construct: protein (rat kidney cortex membranes prepared by method of Maeda et al., 1983); from tissue; host or cells: rat kidney cortex membranes
T1 sequence (P07861 1-750): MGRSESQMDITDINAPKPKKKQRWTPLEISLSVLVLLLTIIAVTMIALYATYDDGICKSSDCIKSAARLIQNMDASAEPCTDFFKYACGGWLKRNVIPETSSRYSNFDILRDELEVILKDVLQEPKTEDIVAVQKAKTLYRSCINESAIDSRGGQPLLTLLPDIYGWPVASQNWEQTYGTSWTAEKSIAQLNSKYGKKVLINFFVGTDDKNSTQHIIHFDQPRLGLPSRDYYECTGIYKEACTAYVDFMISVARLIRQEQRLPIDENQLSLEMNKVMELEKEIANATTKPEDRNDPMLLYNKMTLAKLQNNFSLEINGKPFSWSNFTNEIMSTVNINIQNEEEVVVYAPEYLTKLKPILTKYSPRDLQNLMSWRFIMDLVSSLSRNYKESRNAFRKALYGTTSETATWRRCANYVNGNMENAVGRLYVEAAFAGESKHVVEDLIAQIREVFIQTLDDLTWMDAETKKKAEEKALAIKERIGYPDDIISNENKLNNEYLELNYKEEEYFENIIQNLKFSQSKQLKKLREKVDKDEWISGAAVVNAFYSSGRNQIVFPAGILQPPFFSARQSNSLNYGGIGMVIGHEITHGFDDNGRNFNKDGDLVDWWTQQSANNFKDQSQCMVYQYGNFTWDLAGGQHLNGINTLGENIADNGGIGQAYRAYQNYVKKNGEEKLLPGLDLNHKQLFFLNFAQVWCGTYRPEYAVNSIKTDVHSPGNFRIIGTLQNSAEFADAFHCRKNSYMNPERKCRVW
Experimental: The in vitro inhibition of NEP (EC 3.4.24.11) can be determined as follows:
NEP 3.4.24.11 activity is determined by the hydrolysis of the substrate glutaryl-Ala-Ala-Phe-2-naphthylamide (GAAP) using a modified procedure of Orlowski and Wilk (1981). The incubation mixture (total volume 125 μL) contains 4.2 μL of protein (rat kidney cortex membranes prepared by method of Maeda et al., 1983), 50 mM tris buffer, pH 7.4 at 25° C., 500 μM substrate (final concentration), and leucine aminopeptidase M (2.5 μg). The mixture is incubated for 10 minutes at 25° C., and 100 μL of fast garnet (250 μg fast garnet/mL of 10% Tween 20 in 1 M sodium acetate pH 4.2) is added. Enzyme activity is measure spectrophotometrically at […]. One unit of NEP 24.11 activity is defined as 1 nmol of 2-naphthylamine released per minute at 25° C. at pH 7.4. IC50 values are determined, i.e., the concentration of test compound required for 50% inhibition of the release of 2-naphthylamine.
NEP activity can also be determined using ANF as a substrate. ANF degrading activity is determined by measuring the disappearance of rat-ANF (r-ANF) using a 3-minute reverse phase-HPLC separation. An aliquot of the enzyme in 50 mM tris HCl buffer, pH 7.4, is pre-incubated at 37° C. for 2 minutes and the reaction is initiated by the addition of 4 nmol of r-ANF in a total volume of 50 μL. […]

[3] = molecular target: rabbit antibodies that recognize specifically the carboxyl terminal tryptophan of ET-1; assay: radioimmunoassay: displacement of [125I]ET-1 binding to anti-ET-1 antibodies; settings: mean±SEM, n=3–5
Experimental: Diluted samples (200 μL) obtained from the above enzyme assay are incubated at 4° C. overnight with 25 μL each of [^125I]ET-1 (10,000 cpm/tube) and 1:20,000-fold diluted rabbit antibodies that recognize specifically the carboxyl terminal tryptophan of ET-1. Goat anti-rabbit antibodies coupled to magnetic beads (70 μg) are then added to each tube, and the reaction mixture is further incubated for 30 minutes at room temperature. The beads are pelleted using a magnetic rack. The supernatant is decanted, and the radioactivity in the pellet is counted in a gamma counter. Total and nonspecific binding are measured in the absence of non-radioactive ET-1 and anti-ET antibodies, respectively.

Sequence of angiotensin converting enzyme (ACE) (P12821 30-1306, species assumed): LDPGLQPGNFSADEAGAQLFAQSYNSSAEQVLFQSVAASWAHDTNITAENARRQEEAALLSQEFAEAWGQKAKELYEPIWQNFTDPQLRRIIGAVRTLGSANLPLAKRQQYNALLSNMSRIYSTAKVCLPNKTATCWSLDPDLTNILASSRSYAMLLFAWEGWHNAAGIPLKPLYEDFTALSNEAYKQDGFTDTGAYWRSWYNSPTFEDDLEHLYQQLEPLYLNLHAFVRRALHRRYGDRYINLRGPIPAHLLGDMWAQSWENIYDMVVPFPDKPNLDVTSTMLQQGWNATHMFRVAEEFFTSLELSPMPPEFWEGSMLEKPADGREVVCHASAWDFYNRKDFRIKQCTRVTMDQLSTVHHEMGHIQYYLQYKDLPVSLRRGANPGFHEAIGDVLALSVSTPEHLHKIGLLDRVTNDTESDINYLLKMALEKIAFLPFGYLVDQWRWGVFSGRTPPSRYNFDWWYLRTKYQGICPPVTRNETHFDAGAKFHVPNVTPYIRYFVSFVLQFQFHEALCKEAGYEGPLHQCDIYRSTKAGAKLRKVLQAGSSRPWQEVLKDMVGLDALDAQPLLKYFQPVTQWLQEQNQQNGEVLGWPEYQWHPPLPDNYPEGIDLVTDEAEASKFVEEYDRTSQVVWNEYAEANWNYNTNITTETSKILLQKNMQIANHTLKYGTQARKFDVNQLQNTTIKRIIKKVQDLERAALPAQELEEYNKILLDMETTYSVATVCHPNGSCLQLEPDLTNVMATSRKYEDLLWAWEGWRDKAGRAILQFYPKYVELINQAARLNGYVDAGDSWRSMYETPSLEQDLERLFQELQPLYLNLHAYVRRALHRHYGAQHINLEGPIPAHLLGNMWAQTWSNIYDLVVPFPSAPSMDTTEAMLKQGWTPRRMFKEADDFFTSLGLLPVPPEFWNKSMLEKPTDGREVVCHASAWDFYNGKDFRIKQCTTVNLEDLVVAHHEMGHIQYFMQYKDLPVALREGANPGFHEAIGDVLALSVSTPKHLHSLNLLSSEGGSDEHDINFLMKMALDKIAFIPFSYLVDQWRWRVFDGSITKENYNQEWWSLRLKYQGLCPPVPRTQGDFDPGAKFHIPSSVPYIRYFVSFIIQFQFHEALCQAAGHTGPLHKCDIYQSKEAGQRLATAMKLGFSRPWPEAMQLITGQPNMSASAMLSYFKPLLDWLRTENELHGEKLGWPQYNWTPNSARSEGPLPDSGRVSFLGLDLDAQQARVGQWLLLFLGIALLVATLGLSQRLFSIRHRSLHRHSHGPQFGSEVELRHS

melting point [°C]	Compound	further results
121 to 122	CCOC(=O)[C@@H](NC(=O)C(C)(C)NC(=O)[C@@H](SC(C)=O)C(C)C)[C@@H](C)OCc1ccccc1 [Example 1(c), N-[2-[(S)-2-acetylthio-3-methylbutanoylamino]-2-methylpropionyl]-O-benzyl-L-threonine ethyl ester]	
106 to 107	CCOC(=O)[C@H](COCc1ccccc1)NC(=O)C(C)(C)NC(=O)[C@@H](SC(=O)Cn1cncn1)C(C)C [Example 1(p), N-[2-[(S)-2-[(1-(1,2,4)-triazolyl)acetylthio]-3-methylbutanoylamino]-2-methylpropionyl]-O-benzyl-L-serine ethyl ester]	
95 to 96	CCOC(=O)[C@H](COCc1ccccc1)NC(=O)C(C)(C)NC(=O)[C@@H](SC(=O)CN1CCN(C)CC1)C(C)C [Example 1(q), N-[2-[(S)-2-[(4-methylpiperazino)acetylthio]-3-methylbutanoylamino]-2-methylpropionyl]-O-benzyl-L-serine ethyl ester]	
	CC(C)[C@H](S)C(=O)NC(C)(C)C(=O)N[C@@H](COCc1ccccc1)C(=O)O [Example 6(a), N-[2-[(S)-2-Mercapto-3-methylbutanoylamino]-2-methylpropionyl]-O-benzyl-L-serine]	IC50 [1]: ~0.02 µM; duration of inhibition of the angiotensin I induced pressor response [2]: 3 h; IC50 (NEP (EC 3.4.24.11)): ~0.005 µM
132 to 136	CC(C)[C@H](S)C(=O)NC1(C(=O)N[C@@H](COCc2ccccc2)C(=O)O)CCCC1 [Example 6(b), N-[1-[(S)-2-mercapto-3-methylbutanoylamino]-cyclopentanecarbonyl]-O-benzyl-L-serine]	
81 to 87	CC(C)[C@H](S)C(=O)NC(C)(C)C(=O)N[C@@H](CSCc1ccccc1)C(=O)O [Example 6(c), N-[2-[(S)-2-mercapto-3-methylbutanoylamino]-2-methylpropionyl]-S-benzyl-L-cysteine]	
61 to 64	CC(C)[C@H](S)C(=O)NC(C)(C)C(=O)N[C@H](C(=O)O)[C@@H](C)OCc1ccccc1 [Example 6(d), N-[2-[(S)-2-mercapto-3-methylbutanoylamino]-2-methylpropionyl]-O-benzyl-L-threonine]	
128 to 130	CC(C)(NC(=O)[C@@H](S)C(C)(C)C)C(=O)N[C@@H](COCc1ccccc1)C(=O)O [Example 6(e), N-[2-[(S)-2-mercapto-3,3-dimethylbutanoylamino]-2-methylpropionyl]-O-benzyl-L-serine]	
50 to 54	CC(C)[C@H](S)C(=O)NC(C)(C)C(=O)N[C@@H](COCc1ccc(F)cc1)C(=O)O [Example 6(f), N-[2-[(S)-2-mercapto-3-methylbutanoylamino]-2-methylpropionyl]-O-(4-fluorobenzyl)-L-serine]	
127 to 128	CC(C)[C@H](S)C(=O)NC(C)(C)C(=O)N[C@@H](CCOc1ccc(F)cc1)C(=O)O [Example 6(g), N-[2-[(S)-2-mercapto-3-methylbutanoylamino]-2-methylpropionyl]-O-(4-fluorophenyl)-L-homoserine]	
50 to 56	CC(C)[C@H](S)C(=O)NC(C)(C)C(=O)N[C@@H](CCOc1cccc(F)c1)C(=O)O [Example 6(h), N-[2-[(S)-2-mercapto-3-methylbutanoylamino]-2-methylpropionyl]-O-(3-fluorophenyl)-L-homoserine]	
184 to 189	CC(C)(NC(=O)[C@@H](S)C1CCOCC1)C(=O)N[C@@H](COCc1ccccc1)C(=O)O [Example 6(j), N-[2-[(S)-2-mercapto-2-(4-tetrahydropyranyl)acetylamino]-2-methylpropionyl]-O-benzyl-L-serine]	
	ET-1: endothelin-1, non-radioactive peptide formed from big ET-1 by ECE; standard in the RIA	IC50 for displacement of [125I]ET-1 binding to the antibodies [3]: 21 ± 2 fmol
	big ET-1: human big ET-1, substrate of ECE-1 in the enzyme assay (CSCSSLMDKECVYFCHLDIIWVNTPEHVVPYGLGSPRS; ends and bridges not checked; cysteine pairing not given here; UniProt P05305 53-90, looked up)	IC50 for displacement of [125I]ET-1 binding to the antibodies [3]: 260,000±66,000 fmol
